Test results from US20130236553A1, “Compositions and Methods for the Delivery of Therapeutics” (Board of Regents of the University of Nebraska, priority 2010, published 2013).

Experiments:
[1] = Plasma concentration after low dose SC injection of nanoparticle or free drug; format: in vivo, Mice; conditions: 10 mg/kg SC; for concentration at 0.25 hr / concentration at 1 hr / concentration at 3 hr / concentration at 6 hr / concentration at 10 hr / concentration at 24 hr / concentration at 48 hr / concentration at 96 hr / concentration at 168 hr / concentration at 336 hr: mouse, plasma, subcutaneous
Method: Mice were also administered nanoparticles or free drug at only 10 mg/kg by SC injection.

[2] = system: a variety of HIV strains and host cell types; conditions: read-out: EC50 levels for anti-HIV activity; cited from earlier work
[3] = cited from earlier work
[4] = cited from earlier work; remark: listed apart in the source
HIVADA = test: Antiretroviral activities of RTV (p24 staining, RT activity) in HIVADA infected MDM; format: cell-based, HIV-1; conditions: 12 hours treatment, HIV challenge day 1, read 10 days after infection
Method: Drug-treated MDMs were infected with HIVADA at a multiplicity of infection of 0.01 infectious viral particles/cell (Gendelman et al. (1988) J. Exp. Med., 167:1428-1441) on day 1 after RTV-NP treatment. Following viral infection, cells were cultured for 10 days with half media exchanges every other day. Media samples were collected 10 days after infection for measurement of progeny virion production as assayed by reverse transcriptase (RT) activity (Kalter et al. (1991) J. Immunol., 146:3396-3404). Parallel analyses for expression of HIV p24 antigen in infected cells were performed by immunostaining using p24 mouse monoclonal Ab (Dako [CA, USA]) on the same day as media sampling.
In a 96-well plate, media samples (10 μl) were mixed with 10 μl of a solution containing 100 mM Tris-HCl (pH 7.9), 300 mM KCl, 10 mM dithiothreitol, 0.1% nonyl phenoxylpolyethoxylethanol-40 (NP-40) and water. […] Following incubation, 50 μl of cold 10% TCA was added to each well; the wells were harvested onto glass fiber filters, and the filters were assessed for tritiated thymidine triphosphate incorporation by β-scintillation spectroscopy using a TopCount NX™ (PerkinElmer Inc. [MA, USA]) (Kalter et al. (1991) J. Immunol., 146:3396-3404). […]

Compound: COC(=O)N[C@H](C(=O)N[C@@H](Cc1ccccc1)[C@@H](O)CN(Cc1ccc(-c2ccccn2)cc1)NC(=O)[C@@H](NC(=O)OC)C(C)(C)C)C(C)(C)C [ATV, atazanavir]
- concentration at 0.25 hr [1]: 1150 ng/mL
- concentration at 1 hr [1]: 804 ng/mL
- concentration at 3 hr [1]: 2060 ng/mL
- concentration at 6 hr [1]: 2100 ng/mL
- concentration at 10 hr [1]: 639 ng/mL
- concentration at 24 hr [1]: 9.85 ng/mL
- concentration at 48 hr [1]: 4.38 ng/mL
- concentration at 96 hr [1]: 4.3 ng/mL
- concentration at 168 hr [1]: 1.74 ng/mL
- concentration at 336 hr ([1]; 336 hr): 0 ng/mL
- EC50 [2]: 2 to 5 nM
- solubility of free-base drug [3]: 4000 to 5000 µg/mL
- therapeutic human plasma levels [4]: 0.3 to 2.2 µg/mL
- minimum human therapeutic serum level ([4]; human serum): 150 ng/mL

Compound: O=C1Nc2ccc(Cl)cc2[C@@](C#CC2CC2)(C(F)(F)F)O1 [EFV, efavirenz]
- Plasma concentration, 336 hr ([1]; 336 hr): <LLOQ
- concentration at 0.25 hr [1]: 301 ng/mL
- concentration at 1 hr [1]: 124 ng/mL
- concentration at 3 hr [1]: 155 ng/mL
- concentration at 6 hr [1]: 213 ng/mL
- concentration at 10 hr [1]: 40 ng/mL
- concentration at 24 hr [1]: 7.1 ng/mL
- concentration at 48 hr [1]: 2.17 ng/mL
- concentration at 96 hr [1]: 2.99 ng/mL
- concentration at 168 hr [1]: 2.57 ng/mL
- EC50 [2]: 1.7 to 25 nM
- solubility of free-base drug [3]: 9 µg/mL
- therapeutic human plasma levels [4]: 1.8 to 4.1 µg/mL

Compound: CC(C)(C)NC(=O)[C@@H]1CN(Cc2cccnc2)CCN1C[C@@H](O)C[C@@H](Cc1ccccc1)C(=O)N[C@H]1c2ccccc2C[C@H]1O [IDV, indinavir]
- EC50 [2]: 5 to 29 nM

Compound: CC(C)c1nc(CN(C)C(=O)N[C@H](C(=O)N[C@@H](Cc2ccccc2)C[C@H](O)[C@H](Cc2ccccc2)NC(=O)OCc2cncs2)C(C)C)cs1 [RTV, ritonavir]
- concentration at 0.25 hr [1]: 1080 ng/mL
- concentration at 1 hr [1]: 492 ng/mL
- concentration at 3 hr [1]: 710 ng/mL
- concentration at 6 hr [1]: 551 ng/mL
- concentration at 10 hr [1]: 69.1 ng/mL
- concentration at 24 hr [1]: 5.91 ng/mL
- concentration at 48 hr [1]: 2.36 ng/mL
- concentration at 96 hr [1]: 4.94 ng/mL
- concentration at 168 hr [1]: 2.21 ng/mL
- concentration at 336 hr ([1]; 336 hr): 0 ng/mL
- EC50 [2]: 35 to 200 nM
- protection against HIV infection (p24 staining, multinucleated giant cells) (HIVADA): no protection against infection
- therapeutic human plasma levels [4]: 3.5 to 9.6 µg/mL
